According to the METLIN SMRT retention time set (Domingo-Almenara et al. 2019):

Assay: gradient 5% acetonitrile 3 min, to 50% in 2 min, to 85% in 15 min, held 3 min, 100 µL/min
Settings: column: Zorbax Extend-C18 2.1 x 50 mm; eluents: water / acetonitrile, 0.1% formic acid
Procedure, shortened: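 In both positive and negative ionization mode, a quadrupole time-of-flight mass spectrometer coupled to HPLC analyzed pure standards run in mixtures of ~100 molecules. The Zorbax Extend-C18 column (2.1 × 50 mm, 1.8 μm) was operated at 100 μL/min with water and acetonitrile, each containing 0.1% formic acid. The dead volume was 40 μL and the dwell volume 900 μL. Retention time came from adduct peaks that were computationally picked and individually inspected by hand.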

Row | SMILES | RP-LC retention time
1 | COCCCNC(=O)c1ccc2c(c1)nc1n2CCN(C2CCCCC2)C1=O | 1240 s
2 | Cc1ccc(Nc2c(-c3ccc(C(=O)O)cc3)nc3cnccn23)c(Br)c1 | 1080 s
3 | CN1c2cc(C(=O)NCc3cc(F)cc(F)c3)ccc2C(=O)N2CCCCC21 (stereo unspecified) | 844 s
4 | O=C(NC(=O)c1ccccc1)OCCN1CCN(c2ncc(C(F)(F)F)cc2Cl)CC1 | 692 s
5 | COc1ccc(N2CCN(C(=O)Cn3ccc4c(c(C)nn4-c4ccccc4)c3=O)CC2)cc1 | 736 s
6 | COc1ccc(N2CCN(c3cc(SCC(=O)NCCC4=CCCCC4)ncn3)CC2)cc1 | 1080 s
7 | Cc1cc(NC(=O)c2cc3c(=O)n(CC(C)C)ccc3n2C)ccc1Br | 1030 s
8 | CNC(=O)N1CCC(N2C(=O)C3(CCCCC3)C2c2ccccc2)CC1 (stereo unspecified) | 783 s
9 | N#Cc1ccc(C(=O)N2CCC(c3cc(N)on3)CC2)cc1 | 641 s
10 | CCOc1ccc(CC(=O)N2C[C@@H]3C[C@H]2C[C@@H]3NC(=O)c2ccccc2)cc1 | 762 s
11 | O=C(CN1C(=O)CSc2cccn2-c2ccccc21)N1CCN(c2ccccn2)CC1 | 607 s
12 | CN(C)c1ncncc1N1CCC(C(=O)NC2CCCCCC2)CC1 | 624 s
13 | O=C(NCCC1CCN(C(=O)Nc2ccccc2F)CC1)c1ccco1 | 1170 s
14 | COc1ccccc1-c1noc(Cn2c(=O)n(-c3ccccc3C)c(=O)c3sccc32)n1 | 910 s
15 | COc1cccc(S(=O)(=O)Nc2ccc(C(=O)Nc3ccncc3)cc2)c1 | 578 s
16 | CCc1ccc(NC(=O)C2CC(=O)N(CCc3c[nH]c4ccc(OC)cc34)C2)cc1 (stereo unspecified) | 831 s
17 | CCOc1cccc(-c2noc(Cn3nc(-c4cccc(OC)c4)ccc3=O)n2)c1 | 1090 s
18 | O=C(C1CCC1)N1CCC(Oc2cc(N3CCOCC3)ncn2)C1 (stereo unspecified) | 670 s
19 | O=C(Cc1cccs1)NCCS(=O)(=O)N1CCc2ccccc2C1 | 764 s
20 | COc1ccc(CN2C=C(C(=O)OCc3noc(-c4cccc(OC)c4)n3)C(C)=NS2(=O)=O)cc1 | 1120 s
21 | O=C(Nc1ccc(N2CCN(C3CCCCC3)C2=O)nc1)c1ccc(F)cc1 | 926 s
22 | Cc1csc(NC(=O)C2CCN(S(=O)(=O)c3ccc4c(c3)sc(=O)n4C)CC2)n1 | 782 s

The next lines start with the values.

Row | RP-LC retention time | SMILES
23 | 893 s | Cc1ccc(CNS(=O)(=O)c2ccc(-c3c(C)noc3C)cc2)o1
24 | 606 s | O=C(Cc1ccc(F)cc1)N1CCN(C(=O)c2cc(-c3cccnc3)n[nH]2)CC1
25 | 564 s | O=C(NC1CCN(c2cc(-c3cccs3)[nH]n2)C1)c1ccc2nc[nH]c2c1 (stereo unspecified)
26 | 726 s | CCn1cnc(S(=O)(=O)N2CCCC(C(=O)Nc3ccccc3)C2)c1 (stereo unspecified)
27 | 1050 s | CCCN(CC1CCOC1)S(=O)(=O)c1ccc(C)c(Cl)c1 (stereo unspecified)
28 | 619 s | COc1ccc(OCC(=O)N2CCN(c3cc(C(C)C)n4cnnc4n3)CC2)cc1
29 | 757 s | O=C(N[C@H]1C[C@@H]2C[C@H]1CN2C(=O)c1ccccc1Cl)c1ccccc1
30 | 869 s | Cc1ccccc1NC(=O)CSc1ccc(-n2nccc2C)nn1
31 | 1110 s | COc1cccc(-c2nc(C3CCN(S(=O)(=O)c4ccccc4F)CC3)no2)c1
32 | 693 s | COc1cccc(CNC(=O)c2ccc(CN3CCN(C(C)C)C(=O)C3=O)cc2)c1
33 | 697 s | O=C(Cn1ccnc1-c1ccnc(N2CCSCC2)c1)N1CCN(c2ccccc2)CC1
34 | 1150 s | CCOC(=O)CC1=CC(SCC(=O)N2CCC(C)CC2)=Nc2ccccc2N1
35 | 934 s | COc1ccc(CN2C=C(C(=O)OCc3c(C)noc3C)C(C)=NS2(=O)=O)cc1
36 | 684 s | Nc1cc(C2CCN(C(=O)Cc3ccc(F)cc3)CC2)no1
